Reference: ChEMBL document CHEMBL1201862, “PubChem BioAssay data set” (2004)
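Dose response: 5 concentrations. Exposure: 48 h. Format: 96-well plates. Endpoint: linear interpolation; highest concentration if not reached. GI50 is the concentration that inhibits growth by half.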 The source made the active and inactive calls. Rule as the data show it: active = GI50 up to about 1.1 µM and inactive = higher.

What was measured:
Assay in all cases: growth of human tumour cells (NCI), 48 h
BT-549 = tested on: BT-549
CAKI-1 = tested on: CAKI-1
HCT-116 = tested on: HCT-116
HOP-62 = tested on: HOP-62
IGROV-1 = tested on: IGROV-1
KM12 = tested on: KM12
MDA-N = tested on: MDA-N
MOLT-4 = tested on: MOLT-4
Malme-3M = tested on: Malme-3M
NCI-H23 = tested on: NCI-H23
OVCAR-8 = tested on: OVCAR-8
PC-3 = tested on: PC-3
SF-268 = tested on: SF-268
SK-MEL-2 = tested on: SK-MEL-2
SK-MEL-5 = tested on: SK-MEL-5
SN12C = tested on: SN12C
T47D = tested on: T47D
TK-10 = tested on: TK-10
UACC-257 = tested on: UACC-257
UACC-62 = tested on: UACC-62

SMILES	GI50 (BT-549)	GI50 (CAKI-1)	GI50 (HCT-116)	GI50 (HOP-62)	GI50 (IGROV-1)	GI50 (KM12)	GI50 (MDA-N)	GI50 (MOLT-4)	GI50 (Malme-3M)	GI50 (NCI-H23)	GI50 (OVCAR-8)	GI50 (PC-3)	GI50 (SF-268)	GI50 (SK-MEL-2)	GI50 (SK-MEL-5)	GI50 (SN12C)	GI50 (T47D)	GI50 (TK-10)	GI50 (UACC-257)	GI50 (UACC-62)
CC[P+]1(c2ccccc2)[C@@H](C)CC[C@@H]1C	> 100 µM (inactive)	> 100 µM (inactive)	> 100 µM (inactive)	> 100 µM (inactive)	> 100 µM (inactive)	> 100 µM (inactive)	> 100 µM (inactive)	> 100 µM (inactive)	97.1 µM (inactive)	> 100 µM (inactive)	> 100 µM (inactive)	61.9 µM (inactive)	> 100 µM (inactive)	> 100 µM (inactive)	65.2 µM (inactive)	> 100 µM (inactive)	> 100 µM (inactive)	> 100 µM (inactive)	> 100 µM (inactive)	> 100 µM (inactive)
O=C1C(N2CCN(c3ccccn3)CC2)=C(Cl)C(=O)c2ncccc21	> 10 µM (inactive)	0.433 µM (active)	1.71 µM (inactive)	> 10 µM (inactive)	> 7 µM (inactive)	> 4.33 µM (inactive)	1.66 µM (inactive)	1.83 µM (inactive)	1.3 µM (inactive)	1.85 µM (inactive)	> 4.45 µM (inactive)	> 9.16 µM (inactive)	> 6.1 µM (inactive)	2.31 µM (inactive)	1.79 µM (inactive)	1.66 µM (inactive)	2.06 µM (inactive)	3.24 µM (inactive)	2.96 µM (inactive)	2.54 µM (inactive)
CSC1=NN=C(SC)NN1	0.151 µM (active)	0.173 µM (active)	0.167 µM (active)	0.201 µM (active)	0.166 µM (active)	0.192 µM (active)	0.18 µM (active)	0.027 µM (active)	0.151 µM (active)	0.285 µM (active)	0.285 µM (active)	0.166 µM (active)	0.189 µM (active)	0.145 µM (active)	0.182 µM (active)	0.18 µM (active)	0.142 µM (active)	0.213 µM (active)	0.131 µM (active)	0.148 µM (active)
COc1cc2c(c3oc4c(O)cccc4c(=O)c13)CC(C(C)(O)CCl)O2 (stereo not given)	3.85 µM (inactive)	1.16 µM (inactive)	0.157 µM (active)	0.733 µM (active)	2.03 µM (inactive)	1.29 µM (inactive)	0.51 µM (active)	< 0.01 µM (active)	2.06 µM (inactive)	0.512 µM (active)	0.219 µM (active)	1.22 µM (inactive)	0.0728 µM (active)	1.36 µM (inactive)	0.279 µM (active)	0.209 µM (active)	2.8 µM (inactive)	12.1 µM (inactive)	1.98 µM (inactive)	0.728 µM (active)
CC(C)=CC1CC(C)C2(CCC3(C)CC4C(C(=O)CC4(C)O)/C(C=O)=C\CC32)O1 (stereo not given)	0.177 µM (active)	0.0604 µM (active)	0.0407 µM (active)	0.126 µM (active)	0.144 µM (active)	0.102 µM (active)	0.112 µM (active)	< 0.0153 µM (active)	0.131 µM (active)	0.0757 µM (active)	0.0432 µM (active)	0.038 µM (active)	0.136 µM (active)	0.144 µM (active)	0.216 µM (active)	0.0638 µM (active)	0.0574 µM (active)	0.0235 µM (active)	0.12 µM (active)	0.169 µM (active)
C=C1C[C@@H](O)[C@@H](Br)C(C)(C)[C@@]12C=CC(=O)CC2	> 100 µM (inactive)	> 100 µM (inactive)	> 86.5 µM (inactive)	> 100 µM (inactive)	3.58 µM (inactive)	1.52 µM (inactive)	> 100 µM (inactive)	> 100 µM (inactive)	> 100 µM (inactive)	> 100 µM (inactive)	> 100 µM (inactive)	1.5 µM (inactive)	> 100 µM (inactive)	> 78.5 µM (inactive)	> 100 µM (inactive)	> 100 µM (inactive)	> 100 µM (inactive)	12.6 µM (inactive)	> 100 µM (inactive)	> 100 µM (inactive)
CSC12c3cc(C)n(-c4ccc(I)cc4)c3CC(C)(C)CN1C(=O)C2Oc1ccccc1 (stereo not given)	> 100 µM (inactive)	> 100 µM (inactive)	48.6 µM (inactive)	> 100 µM (inactive)	> 100 µM (inactive)	> 100 µM (inactive)	> 100 µM (inactive)	> 63.1 µM (inactive)	> 100 µM (inactive)	> 100 µM (inactive)	> 100 µM (inactive)	98.6 µM (inactive)	> 100 µM (inactive)	> 100 µM (inactive)	97.5 µM (inactive)	> 100 µM (inactive)	5.97 µM (inactive)	> 100 µM (inactive)	> 66.5 µM (inactive)	> 100 µM (inactive)
CCCCCCCCCCCCCCCCCCN(C)C(COC)COP(=O)([O-])OCC[N+](C)(C)C (stereo not given)	9.18 µM (inactive)	3.69 µM (inactive)	4.68 µM (inactive)	3.09 µM (inactive)	1.3 µM (inactive)	1.66 µM (inactive)	15.6 µM (inactive)	1.82 µM (inactive)	14.9 µM (inactive)	8.45 µM (inactive)	11.8 µM (inactive)	1.53 µM (inactive)	3.24 µM (inactive)	18.7 µM (inactive)	12.9 µM (inactive)	4.23 µM (inactive)	18.4 µM (inactive)	1.84 µM (inactive)	14.6 µM (inactive)	5.16 µM (inactive)
C[C@@H](c1ccccc1)N1CN(C(=O)OCc2ccccc2)C(CO)C1=O (stereo not given in full)	> 100 µM (inactive)	> 100 µM (inactive)	> 100 µM (inactive)	> 100 µM (inactive)	> 100 µM (inactive)	> 100 µM (inactive)	> 100 µM (inactive)	> 100 µM (inactive)	> 100 µM (inactive)	> 100 µM (inactive)	> 100 µM (inactive)	> 100 µM (inactive)	> 100 µM (inactive)	> 100 µM (inactive)	> 100 µM (inactive)	> 100 µM (inactive)	> 100 µM (inactive)	> 100 µM (inactive)	95.7 µM (inactive)	> 100 µM (inactive)
COc1ccc(C(C#N)NC23CC4CC(CC(C4)C2)C3)cc1 (stereo not given)	> 100 µM (inactive)	> 100 µM (inactive)	> 100 µM (inactive)	> 100 µM (inactive)	> 100 µM (inactive)	> 100 µM (inactive)	> 100 µM (inactive)	> 100 µM (inactive)	> 100 µM (inactive)	> 100 µM (inactive)	> 100 µM (inactive)	> 100 µM (inactive)	> 100 µM (inactive)	> 100 µM (inactive)	> 100 µM (inactive)	> 100 µM (inactive)	> 100 µM (inactive)	> 100 µM (inactive)	> 100 µM (inactive)	> 100 µM (inactive)
